According to patent US20120283203A1, “METHODS AND COMPOSITIONS FOR THE TREATMENT OF OBESITY, INSULIN RELATED DISEASES AND HYPERCHOLESTEROLEMIA” (Board of Trustees of Michigan State University, priority 2005, published 2012):
Where “and” joins values, the source holds several entries; their conditions need not be identical. Equal values may be shown once. Entries after “also recorded” stand apart in the source; their conditions may differ.

How the values were obtained:
INS-1 832/13 cells = experiment: Insulin secretion by INS-1 832/13 pancreatic beta cells (RIA, normalized to cellular protein); format: cell-based, rodent; settings: for increase in insulin secretion: increase over untreated cells; for fold increase in insulin secretion: vs untreated cells
Method: Insulin Secretion Studies. INS-1 832/13 cells (kindly provided by Dr Christopher Newgard, Duke University, N.C.) were routinely cultured in 5% CO2/air at 37° C. in RPMI-1640 medium containing 11.1 mM glucose and supplemented with 10% FBS (Fetal Bovine Serum), 10 mM HEPES, 100 U/ml penicillin, […] streptomycin, 4 mM Glutamine, 1 mM sodium pyruvate, and 50 μM 2-mercaptoethanol. Cells were passed weekly after trypsin-EDTA detachment. For static secretion studies, cells were plated on 24 well plates at a density of 0.64×10^6 cells per well and grown for 24 h. The cells were then cultured for an additional 24 h in RPMI-1640 containing 4 mM glucose and the supplements described above. Cells were then incubated twice for 30 min in Krebs Ringer Bicarbonate buffer (KRBB) containing 4 mM glucose and 0.1% BSA. Cells were rapidly washed with KRBB and incubated for 60 min KRBB containing 4 or 10 mM glucose with or without the indicated anthocyanins or anthocyanidins. The medium was then removed for determining insulin release. The cells were then washed twice with PBS and dissolved in 1 M NaOH. Cellular protein concentration was then determined by Lowry assay. Anthocyanins and anthocyanidins were dissolved in DMSO to obtain desired concentrations. Final concentration of DMSO was 0.1%. The insulin secreted into the medium by the cells was determined by radioimmuno assay and normalized to total cellular protein.
Radio Immuno Assay (RIA). The Kit for RIA was purchased from LINCO Research Inc. (St Charles, Mo.), and the assay was conducted according to the manufacturer's directions. Briefly, 0.1-10 ng of insulin standards (100 μl) were added to 12×75 mm test tubes. Similarly, samples (25 μl) from the insulin secretion studies were also added to the test tubes. To this, an aliquot (75 μl) of assay buffer was added. The ^125I labeled insulin (100 μl) was then added to each test tube. […] The tubes were then centrifuged and the radioactivity was measured using a gamma counter.
Lowry protein Assay. The amount of protein in the assay wells was determined by Lowry method. The Lowry assay solution was prepared by combining the Lowry solution, CuSO4.5H2O (1%), and sodium tartarate (1%). Briefly, the protein sample (100 μl) and Lowry mixture (1 mL) were mixed in a test tube (12×75). The Folin-Ciolatues reagent (100 μl) was added to these tubes, mixed, and incubated for 30 min at room temperature. The optical density of resulting solutions was read at 700 nm using a UV spectrophotometer.

[1] = for plasma insulin level: end of feeding, controls 0.47 and 0.41 ng/mL
Method: Collection of serum, liver and adipose tissue. The feeding was terminated after 12 weeks. The animals were then anesthetized by using isoflurane, sacrificed and blood was collected by cardiac puncture in heparinized tubes. The plasma was separated by centrifugation at 1600×g for 10 min at 4° C., frozen immediately and stored at −20° C. until use. […] All tissues were then transferred from liquid nitrogen and stored at −80° C. until analyses.
Radio Immuno Assay (RIA). The plasma insulin levels were measured by rat insulin RIA kit purchased from LINCO Research Inc. (St. Charles, Mo.). The insulin standards (100 aliquots) were pipetted to 12×75 mm test tubes. A total of 10 concentrations of insulin, ranging from 0.1-10 ng/mL, were used to determine the standard curve. The plasma samples (aliquots of 1-25 μl) were added to test tubes and the assay buffer was added to attain a total sample volume of 100 μl. The ^125I labeled insulin and anti rat insulin antibody (100 μL each) were added to the tubes, mixed and incubated at 4° C. After 24 h, the precipitating reagent (1 mL) was added and incubated again at 4° C. for 20 min to precipitate the insulin bound to the antibody. The tubes were then centrifuged for 20 min at 3000 g, decanted and the radioactivity was measured using a gamma counter.

[2] = Body weight of C57BL/6J mice on high fat diet, 12-week feeding study; format: in vivo; settings: for weight gain during the treatment period: 8 weeks of treatment in high fat diet, high fat control 9.76 g; for overall weight gain during the experimental period: 12 weeks, high fat control 18.98 g; for weight loss: compared to the high fat diet controls; for body weight: high fat diet with compound, high fat control 36.91 g, normal diet 31.5 g
Method: Animals and Diet: Male C57BL/6J mice, 4 weeks old, were purchased from Jackson Laboratories (Bar Harbor, Me., USA). The mice were individually housed under controlled temperature (70° F.) and 12 h light-dark cycles. The mice (n=40) had free access to water and laboratory non-purified diet for 5 days. After acclimatization, the mice were randomly divided into groups 1-5 (n=8) for the study. The experiments were carried out according to the ethical guidelines of University Laboratory Animal Resources (ULAR) at Michigan State University, East Lansing, Mich. The diets, 10% K. Cal. (normal) and 60% K. Cal. (high fat), were purchased from Research Diets (New Brunswick, N.J.). The controls were groups 1 and 2 and received normal (10% K. Cal.) and high fat (60% K. Cal.) diets, respectively, throughout the study. The food was prepared for each treatment separately by mixing 1 g of pure anthocyanin mixture, 500 mg each of betulinic and ursolic acids per kilogram high fat diet. The treatment groups, 3-5, were fed initially for 4 weeks with the high fat diet and then switched to the diet containing anthocyanins, betulinic acid or ursolic acids. Food was changed at intervals of three days to avoid oxidation of the fat or compounds. The daily food intake (FIG. 1) and the weekly body weight for each animal were determined throughout the study (FIG. 2A-C).

[3] = Glucose tolerance test (i.p. glucose 2 g/kg) in high fat diet fed mice; format: in vivo, C57BL/6J mice; settings: for blood glucose level after 90 min of glucose load: 90 min after 2 g/kg i.p. glucose, high fat control 363, normal diet 190
Method: Glucose Tolerance Test (GTT). The glucose tolerance test was performed on five animals from each group (n=5) after 6 weeks of supplementation. The blood glucose level was measured at time 0 (min) with a Free Style Flash (TheraSense, Inc., CA) handheld glucometer using the test strips (Free Style, TheraSense, Inc., CA). For GTT, a sterile solution containing 2 g of glucose per kg body weight was injected intraperitoneally (i.p.). The tail vein blood was collected and glucose levels measured at 5, 10, 15, 30, 60, and 90 min, respectively. The blood glucose levels were plotted against the time (FIG. 3).

[4] = Total plasma cholesterol at end of feeding study; format: in vivo, C57BL/6J mice; settings: high fat control 156.4, normal diet 120.5
Method: Collection of serum, liver and adipose tissue. The feeding was terminated after 12 weeks.
Determination of Plasma Cholesterol: The total plasma cholesterol was analyzed by Clinical Pathology Laboratory at the Diagnostic Center for Population and Animal Health, College of Veterinary Medicine, Michigan State University according to the established standard analytical protocol for total cholesterol.

[5] = 4 and 10 mM glucose, or glucose level not specified

Molecule: OC[C@H]1O[C@@H](Oc2cc3c(O)cc(O)cc3[o+]c2-c2ccc(O)c(O)c2)[C@H](O)[C@@H](O)[C@@H]1O [cyanidin-3-glucoside]
- effect on insulin secretion (in words) (INS-1 832/13 cells; 4 mM glucose): less active than delphinidin-3-glucoside
- insulin secreted (INS-1 832/13 cells; 4 mM glucose, 5 μg/mL, untreated cells 33): 46 ng of insulin per mg protein
- increase in insulin secretion (INS-1 832/13 cells; 4 mM glucose, 50 μg/mL): 9 ng/mg of protein
- fold increase in insulin secretion (INS-1 832/13 cells; 4 mM glucose, 50 μg/mL): 1.3 fold
- dose dependent insulin secretion (in words) (INS-1 832/13 cells; 4 mM glucose, 10, 50, 100 and 250 μg/mL): no significant difference in insulin secretion
- effect on insulin secretion (in words) (INS-1 832/13 cells; 10 mM glucose): more active
- insulin secreted (INS-1 832/13 cells; 10 mM glucose, 50 μg/mL): 119 ng/mg protein
- fold increase in insulin secretion (INS-1 832/13 cells; 10 mM glucose, 50 μg/mL): 1.43 fold
- effect on insulin secretion (in words) (INS-1 832/13 cells; [5]): most effective insulin secretagogues

Molecule: anthocyanins
- hypoglycemia ([1]; mouse, in vivo): without causing hypoglycemia

Molecule: COc1cc(-c2[o+]c3cc(O)cc(O)c3cc2O)cc(O)c1O [petunidin]
- increase in insulin secretion (INS-1 832/13 cells; 4 mM glucose, 50 μg/mL): 4 ng/mg of protein

Molecule: Oc1cc(O)c2cc(O)c(-c3ccc(O)c(O)c3)[o+]c2c1 [cyanidin]
- insulin secreted (INS-1 832/13 cells; 4 mM glucose, 50 μg/mL): 29 ng/mg of protein
- fold increase in insulin secretion (INS-1 832/13 cells; 4 mM glucose, 50 μg/mL): 1.5 fold
- insulin secreted (INS-1 832/13 cells; 10 mM glucose, 50 μg/mL): 88 ng/mg protein

Molecule: Oc1ccc(-c2[o+]c3cc(O)cc(O)c3cc2O)cc1 [pelargonidin]
- insulin secreted (INS-1 832/13 cells; 4 mM glucose, 50 μg/mL): 49 ng/mg of protein
- fold increase in insulin secretion (INS-1 832/13 cells; 4 mM glucose, 50 μg/mL): 1.4 fold
- insulin secreted (INS-1 832/13 cells; 10 mM glucose, 50 μg/mL): 91 ng/mg protein
- fold increase in insulin secretion (INS-1 832/13 cells; 10 mM glucose, 50 μg/mL): 1.2 fold

Molecule: C[C@H]1[C@H](C)CC[C@]2(C(=O)O)CC[C@]3(C)C(=CC[C@@H]4[C@@]5(C)CC[C@H](O)C(C)(C)[C@@H]5CC[C@]43C)[C@H]12 [ursolic acid]
- weight gain during the treatment period ([2]; listed as 3 (group 5)): 8.78 g
- overall weight gain during the experimental period [2]: 17.45 g
- effect on body weight (in words) ([2]; compared to high fat diet control): did not decrease bodyweight of the treated animals significantly
- weight loss [2]: not significant
- body weight [2]: 34.89 g
- blood glucose level after 90 min of glucose load [3]: 227 ± 22.982 mg/dL
- time at which blood glucose concentration reached the maximum ([3]; after glucose injection): 60 min
- glucose tolerance / insulin resistance (in words) ([3]; high fat diet fed mice): corrected glucose levels similar to control group animals fed on normal diet; also recorded: overcame the insulin resistance; also recorded: glucose absorption was slow
- plasma insulin level [1]: 52.25 ± 8.84 ng/mL and 52.25 ± 18.84 ng/mL

Molecule: OC[C@H]1O[C@@H](Oc2cc3c(O)cc(O)cc3[o+]c2-c2cc(O)c(O)c(O)c2)[C@H](O)[C@@H](O)[C@@H]1O [delphinidin-3-glucoside]
- insulin secreted (INS-1 832/13 cells; 4 mM glucose, 50 μg/mL): 49 ng/mg of protein
- fold increase in insulin secretion (INS-1 832/13 cells; 4 mM glucose, 50 μg/mL): 1.8 fold
- insulin secreted (INS-1 832/13 cells; 10 mM glucose, 50 μg/mL): 113 ng/mg protein
- fold increase in insulin secretion (INS-1 832/13 cells; 10 mM glucose, 50 μg/mL): 1.4 fold
- effect on insulin secretion (in words) (INS-1 832/13 cells; [5]): most effective insulin secretagogues; also recorded: significantly induced the insulin secretion
- effect on insulin secretion (in words) (INS-1 832/13 cells; 4 and 10 mM glucose, or glucose level not specified, listed as Delphinidin-3-glucoside): most active anthocyanin tested

Molecule: C=C(C)[C@@H]1CC[C@]2(C(=O)O)CC[C@]3(C)[C@H](CC[C@@H]4[C@@]5(C)CC[C@H](O)C(C)(C)[C@@H]5CC[C@]43C)[C@@H]12 [betulinic acid]
- weight gain during the treatment period [2]: 7.73 ± 0.44 g
- weight gain during the treatment period ([2]; listed as 2 (group 4)): 7.73 g
- overall weight gain during the experimental period [2]: 15.16 g
- weight loss [2]: 21%
- body weight [2]: 33.54 g
- blood glucose level after 90 min of glucose load [3]: 317.8 ± 21.9 mg/dL
- blood glucose level at zero time ([3]; before glucose load, high fat control 119.8): 123.4 ± 6.0 mg/dL
- plasma cholesterol level [4]: 126.5 ± 14.01 mg/dL
- plasma insulin level [1]: 460 ± 93.68 ng/mL and 460.86 ± 193.68 ng/mL

Molecule: OCC1OC(Oc2cc3c(O)cc(O)cc3[o+]c2-c2ccc(O)cc2)C(O)C(O)C1O (stereo not shown) [pelargonidin-3-galactoside]
- effect on insulin secretion (in words) (INS-1 832/13 cells; 4 mM glucose): did not increase the insulin secretion
- effect on insulin secretion (in words) (INS-1 832/13 cells; [5]): did not induce insulin secretion

Molecule: OC[C@H]1O[C@@H](Oc2cc3c(O)cc(O)cc3[o+]c2-c2ccc(O)c(O)c2)[C@H](O)[C@@H](O)[C@H]1O [cyanidin-3-galactoside]
- effect on insulin secretion (in words) (INS-1 832/13 cells; 4 mM glucose): did not increase the insulin secretion
- increase in insulin secretion (INS-1 832/13 cells; 10 mM glucose, 50 μg/mL): 17 ng/mg of protein
- fold increase in insulin secretion (INS-1 832/13 cells; 10 mM glucose, 50 μg/mL): 1.2 fold
- effect on insulin secretion (in words) (INS-1 832/13 cells; [5]): significant increase in insulin secretion

Molecule: Oc1cc(O)c2cc(O)c(-c3cc(O)c(O)c(O)c3)[o+]c2c1 [delphinidin]
- increase in insulin secretion (INS-1 832/13 cells; 4 mM glucose, 50 μg/mL): 6 ng/mg of protein
